These results are taken from article PMC12169609, “Efficient Crystallization of Apo Sirt2 for Small-Molecule Soaking and Structural Analysis of Ligand Interactions” (Journal of Medicinal Chemistry, 2025).

The structures appear in SMILES notation.

Series [1] addresses T1, Sirt2_56–356 (Homo sapiens, UniProt Q8IXJ6).
T1 construct: human strep-tagged Sirt2_56–356 was expressed and purified; strep-tag; made in house
T1 sequence (Q8IXJ6 56-356): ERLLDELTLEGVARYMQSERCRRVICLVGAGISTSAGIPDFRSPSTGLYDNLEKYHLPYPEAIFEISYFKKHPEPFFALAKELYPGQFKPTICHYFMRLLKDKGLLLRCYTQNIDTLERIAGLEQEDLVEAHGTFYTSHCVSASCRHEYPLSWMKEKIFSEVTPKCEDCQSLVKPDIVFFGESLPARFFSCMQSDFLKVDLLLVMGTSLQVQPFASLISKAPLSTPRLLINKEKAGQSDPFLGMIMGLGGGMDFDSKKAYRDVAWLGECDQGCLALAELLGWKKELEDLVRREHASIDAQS
Put plainly: Fluorescence polarization assay (FPA), displacement of SirReal-TAMRA probe. The format is binding. The note with it: for FP-Assay Inhibition (%) at 125 µM / inhibition at 125 µM: 125 µM compound; for FP-Assay Inhibition (%) at 500 µM / inhibition at 500 µM: 500 µM compound; for FP-Assay Inhibition (%) at 2000 µM / inhibition at 2000 µM: 2000 µM compound; for IC50: 200 nM Sirt2, 40 nM SirReal-TAMRA, 5% DMSO; for inhibition at 125 µM: read-out: FP-Assay Inhibition (%) at 125 µM; for inhibition at 500 µM: read-out: FP-Assay Inhibition (%) at 500 µM; for inhibition at 2000 µM: read-out: FP-Assay Inhibition (%) at 2000 µM. The procedure: Blank controls contained 19 μL of assay buffer and 1 μL DMSO. Negative controls (P neg) used 1 μL Mz242 (20 μM final concentration), while positive controls (Ppos) replaced the inhibitor with 1 μL DMSO. […] Fluorescence intensities were measured with an EnVision plate reader (PerkinElmer, optical module – BODIPY TMR FP, excitation filter – FP 531 nm, emission filter 1 – FP p-pol 595 nm, emission filter 2 – FP s-pol 595 nm). Inhibition was calculated using the equation reported below (P I, P neg, and P pos are FP values of samples, […], respectively). I=100×(1−(PI−Pneg/Ppos−Pneg))%
A general note: Polarisation of emitted light reports the rotation of a fluorescent probe.

Series [2] deals with T1, Sirt2_56–356. Put plainly: Fluorescence thermal shift assay (DSF). Type of series: binding. The note with it: 6.0 μM Sirt2; for FTS-Assay Thermal shift at 1000 µM / ΔTm at 1000 µM: 1000 µM compound; for ΔTm at 1000 µM: read-out: FTS-Assay Thermal shift at 1000 µM. The procedure:
Fluorescence thermal shift assays were performed in white 96-well plates (Hard-Shell PCR Plates, BioRad, USA) with a total volume of 20 μL and a final DMSO concentration of 5% (v/v), following a published protocol. ,
Melting temperatures were determined using GraphPad Prism, following a published procedure.

The test system of a further series is Sirt2. Conditions: published Sirt2 inhibitors; no assay or reference printed at the place; cited from earlier work.
Series [3] can be described thus: Precipitation observed in the FP assay IC50 determination. Type of series: physicochemical. The note with it: FP assay buffer, 5% DMSO. The source says:
Figure S3: (A) Superimposition of Sirt2 apo (salmon, PDB 9FDR) with Sirt2-Mz242 (Sirt2 = yellow-orange, Mz242 = yellow, PDB 8OWZ).4 All amino acids that are involved in the formation of the selectivity pocket align very well. However, Phe96 and Arg97 from the cofactor binding loop show a different orientation, resulting from the presence or absence of Mz242. (B) Superimposition of Sirt2-KT9 (Sirt2 = wheat, KT9 = firebrick, PDB 9FDX) with NAD+ (gray) from PDB 4RMG. In the presented KT9 orientation, the close distance of the amide C=O of KT9 and the ribose moiety of NAD+ (highlighted as black circle) would result in steric clashes that prevent simultaneous binding.
Figure S4: IC50 curves of compounds 1-3 in a previously reported Sirt2 binding assay based on fluorescence polarization.5 At concentrations exceeding 1000 µM, 1 started to precipitate, thus limiting the maximum inhibition to 70%. […]

On to `Clc1ccc2ncccc2c1` [No. 15], for which, at Sirt2_56–356 [1], the “FP-Assay Inhibition (%) at 125 µM” value stood at 6.3 ± 7.4%, the “FP-Assay Inhibition (%) at 500 µM” value was 36.2 ± 6.5% and the “FP-Assay Inhibition (%) at 2000 µM” value worked out at 87.3 ± 6.8%. For the same molecule, on Sirt2_56–356 [2], the “FTS-Assay Thermal shift at 1000 µM” value was found to be 0.7 °C. The “FTS-Assay Thermal shift at 2000 µM” value at Sirt2_56–356 [2] (2000 µM compound) was found to be 0.2 °C.
Turning to `CCOC(=O)Cc1ccc(OC)cc1` [No. 16], on Sirt2_56–356 [1], the “FP-Assay Inhibition (%) at 125 µM” value came to 23.1 ± 3.9% and the “FP-Assay Inhibition (%) at 500 µM” value is recorded as 50.5 ± 5.4%. Besides, on Sirt2_56–356 [2], the “FTS-Assay Thermal shift at 1000 µM” value is 0.5 °C. In addition, the “FTS-Assay Thermal shift at 2000 µM” value at Sirt2_56–356 [2] (2000 µM compound) was 0.4 °C.
Turning to `CCOC(=O)Cc1cccc(Cl)c1` [No. 17], at Sirt2_56–356 [1], the “FP-Assay Inhibition (%) at 125 µM” value is listed as 24.7 ± 4.0%, the “FP-Assay Inhibition (%) at 500 µM” value was found to be 63.8 ± 2.4% and the “FP-Assay Inhibition (%) at 2000 µM” value amounted to 99.7 ± 4.6%. On Sirt2_56–356 [2], the “FTS-Assay Thermal shift at 1000 µM” value worked out at 0.9 °C. Further, the “FTS-Assay Thermal shift at 2000 µM” value at Sirt2_56–356 [2] (2000 µM compound) is 0.9 °C.
Consider `Cc1ccc(=O)n(Cc2ccc(Cl)cc2)n1` [No. 18], for which, on Sirt2_56–356 [1], the “FP-Assay Inhibition (%) at 125 µM” value is 11.3 ± 3.2%, the “FP-Assay Inhibition (%) at 500 µM” value is 41.9 ± 7.0% and the “FP-Assay Inhibition (%) at 2000 µM” value amounted to 90.8 ± 2.8%. On Sirt2_56–356 [2], the “FTS-Assay Thermal shift at 1000 µM” value was 1.3 °C. The “FTS-Assay Thermal shift at 2000 µM” value on Sirt2_56–356 [2] (2000 µM compound) stood at 0.1 °C.
On to `CC1(C)CC(=O)c2c(SCCO)sc(C#N)c2C1` [No. 19], for which, at Sirt2_56–356 [1], the “FP-Assay Inhibition (%) at 125 µM” value was 8.2 ± 4.9%, the “FP-Assay Inhibition (%) at 500 µM” value is on record as 40.9 ± 5.6% and the “FP-Assay Inhibition (%) at 2000 µM” value was found to be 91.5 ± 1.7%.
For the molecule `Nc1nc(-c2ccc(F)c(F)c2)cs1` [No. 20], on Sirt2_56–356 [1], the “FP-Assay Inhibition (%) at 125 µM” value is recorded as -0.9 ± 6.3%, the “FP-Assay Inhibition (%) at 500 µM” value is listed as 38.8 ± 4.6% and the “FP-Assay Inhibition (%) at 2000 µM” value amounted to 91.3 ± 3.2%. On Sirt2_56–356 [2] (2000 µM compound), the “FTS-Assay Thermal shift at 2000 µM” value amounted to 0.0 °C.
On to `CCOC(=O)c1cccc(-c2nccs2)c1` [No. 21], for which, at Sirt2_56–356 [1], the “FP-Assay Inhibition (%) at 125 µM” value is given as 41.8 ± 5.9%, the “FP-Assay Inhibition (%) at 500 µM” value stood at 91.4 ± 2.5% and the “FP-Assay Inhibition (%) at 2000 µM” value is reported as 97.0 ± 6.2%. In addition, the “FTS-Assay Thermal shift at 1000 µM” value at Sirt2_56–356 [2] is 0.9 °C.
With `CC(=O)c1c(O)cccc1OCCC(C)C` [No. 22], on Sirt2_56–356 [1], the “FP-Assay Inhibition (%) at 125 µM” value worked out at 57.6 ± 7.3%, the “FP-Assay Inhibition (%) at 500 µM” value was 74.2 ± 4.2% and the “FP-Assay Inhibition (%) at 2000 µM” value came to 56.5 ± 2.8%. In addition, the “FTS-Assay Thermal shift at 1000 µM” value at Sirt2_56–356 [2] was found to be 1.9 °C. Besides, the “FTS-Assay Thermal shift at 2000 µM” value on Sirt2_56–356 [2] (2000 µM compound) stood at 1.6 °C.
The term IC50 denotes the point on the concentration scale where inhibition reaches its midpoint. Take `Cc1cc(C)nc(SCC(=O)Nc2ncc(Cc3cccc4ccccc34)s2)n1` [SirReal2]: the concentration for half-maximal inhibition (IC50) with Sirt2 was […].
As usually defined, the inhibition is the drop in the measured response relative to a control, in per cent. On to `NC(=S)c1ccc(OCC(F)(F)F)nc1` [compound 1], for which, on Sirt2_56–356 [1], the concentration for half-maximal inhibition (IC50) came out at 286 ± 10 µM, the inhibition at 125 µM stood at 26.5 ± 5.8%, the inhibition at 500 µM amounted to 55.4 ± 4.3% and the inhibition at 2000 µM stood at 74.2 ± 3.1%. In addition, at Sirt2_56–356 [2], the ΔTm at 1000 µM came to 0.3 °C. Also, the ΔTm at 2000 µM on Sirt2_56–356 [2] (2000 µM compound, read-out: FTS-Assay Thermal shift at 2000 µM) was determined as 0.6 °C. In addition, the “concentration above which compound started to precipitate” value in series [3] is listed as “exceeding 1000 µM”.
Consider `O=C(NCc1ccccn1)c1cccc(Cl)c1` [compound 3], for which, on Sirt2_56–356 [1], the IC50 is 565 ± 95 µM, the inhibition at 125 µM was found to be 15.1 ± 7.7%, the inhibition at 500 µM is 46.9 ± 9.3% and the inhibition at 2000 µM stood at 94.8 ± 3.4%. Besides, on Sirt2_56–356 [2], the ΔTm at 1000 µM was 0.5 °C.
